Measurements published in US6706663B2, “Herbicidal 3-heterocyclic substituted benzisothiazole and benzisoxazole compounds” (Wyeth, priority 2000, dated 2004).

What was measured:
ZEAMX (Corn, Field) [1] = assay: Preemergence herbicidal evaluation; format: in vivo, Zea mays, L.; details: preemergence, rated 4-5 weeks after treatment
[2] = tested on: MOOVA (Monochoria vaginalis); assay: Flooded paddy, preemergence weed control; format: in vivo, Presl.; details: rated 3-4 weeks after treatment, 0-9 rating scale
Procedure, shortened: (§1)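 Greenhouse paddy test, preemergence. Seeds planted in the top 0.5 cm of silt loam soil, which remained flooded at 1.5–3 cm depth. Scored 0-9 by visual comparison with control.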

GALAP (Galium aparine) [3] = assay: Postemergence herbicidal evaluation; format: in vivo; details: postemergence
Procedure, shortened: (§2)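 Seedlings grown for about two weeks were sprayed postemergence and then kept under standard greenhouse care. Injury was rated visually 4–5 weeks after treatment on a 0–9 scale against untreated controls, and ratings from repeat tests were averaged.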

[4] = tested on: TRZAWR (Wheat, Winter, cv Riband); assay: Postemergence herbicidal evaluation; format: in vivo, Triticum aestivum; details: postemergence
Procedure, shortened: as §2

[5] = tested on: AMBEL (Ambrosia artemisifolia); assay: Preemergence herbicidal evaluation; format: in vivo, L.; details: preemergence, rated 4-5 weeks after treatment
Procedure, shortened: (§3)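 Test compound is applied in aqueous acetone to cups just after seeding. Cups are watered and maintained on greenhouse benches. Each cup is scored 0–9 by eye relative to a control after four to five weeks.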

[6] = tested on: IPOHE (Ipomoea hederacea); assay: Postemergence herbicidal evaluation; format: in vivo, (L.) Jacq.; details: postemergence
Procedure, shortened: as §2

[7] = tested on: IPOHE (Ipomoea hederacea); assay: Preemergence herbicidal evaluation; format: in vivo, (L.) Jacq.; details: preemergence, rated 4-5 weeks after treatment
[8] = tested on: ABUTH (Abutilon theophrasti); assay: Preemergence herbicidal evaluation; format: in vivo, Medic.; details: preemergence, rated 4-5 weeks after treatment
GALAP (Galium aparine) [9] = assay: Preemergence herbicidal evaluation; format: in vivo; details: preemergence, rated 4-5 weeks after treatment
Procedure, shortened: as §3

[10] = tested on: ECHCG (Echinochloa crus-galli); assay: Preemergence herbicidal evaluation; format: in vivo, (L.) Beau; details: preemergence, rated 4-5 weeks after treatment
Procedure, shortened: as §3

ORYSAT (Rice, Tebonnet) [11] = assay: Postemergence herbicidal evaluation; format: in vivo, Oryza sativa, (L.) Tebonnet; details: postemergence
Procedure, shortened: as §2

GLXMA (Soybean) = assay: Preemergence herbicidal evaluation; format: in vivo, Glycine max, (L.) Merr.; details: preemergence, rated 4-5 weeks after treatment
CYPIR (Cyperus iria) = assay: Flooded paddy, preemergence weed control; format: in vivo; details: rated 3-4 weeks after treatment, 0-9 rating scale
Procedure, shortened: as §1

[12] = tested on: GLXMAW (Soybean, Williams); assay: Postemergence herbicidal evaluation; format: in vivo, Glycine max, (L.) Merr. cv Williams; details: postemergence
Procedure, shortened: as §2

[13] = tested on: ABUTH (Abutilon theophrasti); assay: Postemergence herbicidal evaluation; format: in vivo, Medic.; details: postemergence
Procedure, shortened: as §2

[14] = tested on: ECHORC (Echinochloa oryzoides); assay: Flooded paddy, preemergence weed control; format: in vivo, Echinochloa oryzoides (Ard.) Fritsch.; details: rated 3-4 weeks after treatment, 0-9 rating scale
Procedure, shortened: as §1

ORYSAT (Rice, Tebonnet) [15] = assay: Flooded paddy, post-transplant rice tolerance; format: in vivo, Oryza sativa, (L.) Tebonnet; details: in vivo
Procedure, shortened: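 Seedlings aged ten days are transplanted in pairs into undrained pots of silt loam, which are then flooded to a depth of 1.5 to 3 cm. After herbicide application the pots are kept in a greenhouse with the flood maintained. Plants are rated 0-9 by visual comparison with controls.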

[16] = tested on: ECHCG (Echinochloa crus-galli); assay: Postemergence herbicidal evaluation; format: in vivo, (L.) Beau; details: postemergence
Procedure, shortened: as §2

[17] = tested on: CHEAL (Chenopodium album); assay: Postemergence herbicidal evaluation; format: in vivo, L.; details: postemergence
Procedure, shortened: as §2

[18] = tested on: CASOB (Cassia obtusifolia); assay: Postemergence herbicidal evaluation; format: in vivo, L.; details: postemergence
Procedure, shortened: as §2

[19] = tested on: AMBEL (Ambrosia artemisifolia); assay: Postemergence herbicidal evaluation; format: in vivo, L.; details: postemergence
Procedure, shortened: as §2

[20] = tested on: SAGPY (Sagittaria pygmaea); assay: Flooded paddy, preemergence weed control; format: in vivo, L.; details: rated 3-4 weeks after treatment, 0-9 rating scale
Procedure, shortened: as §1

ZEAMX (Corn, Field) [21] = assay: Postemergence herbicidal evaluation; format: in vivo, Zea mays, L.; details: postemergence
Procedure, shortened: as §2

## 5-[5-[3,6-dihydro-3-methyl-2,6-dioxo-4-(trifluoromethyl)-1(2H)-pyrimidinyl]-1,2-benzisothiazol-3-yl]-1,6-hydro-6-oxo-2,3-pyrazinedicarbonitrile [Compound 91]
ZEAMX (Corn, Field) [1]; rate 0.0620 kg/ha
  Preemergence herbicidal rating ZEAMX: 0.0
ZEAMX (Corn, Field) [1]; rate 0.1250 kg/ha
  Preemergence herbicidal rating ZEAMX: 0.0
ZEAMX (Corn, Field) [1]; rate 0.2500 kg/ha
  Preemergence herbicidal rating ZEAMX: 0.0
[2]; rate 0.0320 kg/ha
  MOOVA herbicidal rating: 0.0
[2]; rate 0.1250 kg/ha
  MOOVA herbicidal rating: 0.0
GALAP (Galium aparine) [3]; rate 0.0320 kg/ha
  GALAP herbicidal rating: 3.0
GALAP (Galium aparine) [3]; rate 0.0620 kg/ha
  GALAP herbicidal rating: 3.0
GALAP (Galium aparine) [3]; rate 0.1250 kg/ha
  GALAP herbicidal rating: 3.0
[4]; rate 0.0320 kg/ha
  TRZAWR herbicidal rating: 0.0
[4]; rate 0.0620 kg/ha
  TRZAWR herbicidal rating: 0.0
[4]; rate 0.1250 kg/ha
  TRZAWR herbicidal rating: 0.0
[5]; rate 0.0620 kg/ha
  Preemergence herbicidal rating AMBEL: 0.0
[5]; rate 0.1250 kg/ha
  Preemergence herbicidal rating AMBEL: 0.0
[5]; rate 0.2500 kg/ha
  Preemergence herbicidal rating AMBEL: 0.0
[6]; rate 0.0320 kg/ha
  IPOHE herbicidal rating: 7.0
[6]; rate 0.0620 kg/ha
  IPOHE herbicidal rating: 7.0
[6]; rate 0.1250 kg/ha
  IPOHE herbicidal rating: 8.0
[7]; rate 0.0620 kg/ha
  Preemergence herbicidal rating IPOHE: 0.0
[7]; rate 0.1250 kg/ha
  Preemergence herbicidal rating IPOHE: 0.0
[7]; rate 0.2500 kg/ha
  Preemergence herbicidal rating IPOHE: 0.0
[8]; rate 0.0620 kg/ha
  Preemergence herbicidal rating ABUTH: 0.0
[8]; rate 0.1250 kg/ha
  Preemergence herbicidal rating ABUTH: 0.0
[8]; rate 0.2500 kg/ha
  Preemergence herbicidal rating ABUTH: 0.0
GALAP (Galium aparine) [9]; rate 0.0620 kg/ha
  Preemergence herbicidal rating GALAP: 0.0
GALAP (Galium aparine) [9]; rate 0.1250 kg/ha
  Preemergence herbicidal rating GALAP: 0.0
GALAP (Galium aparine) [9]; rate 0.2500 kg/ha
  Preemergence herbicidal rating GALAP: 0.0
[10]; rate 0.0620 kg/ha
  Preemergence herbicidal rating ECHCG: 0.0
[10]; rate 0.1250 kg/ha
  Preemergence herbicidal rating ECHCG: 0.0
[10]; rate 0.2500 kg/ha
  Preemergence herbicidal rating ECHCG: 0.0
ORYSAT (Rice, Tebonnet) [11]; rate 0.0320 kg/ha
  ORYSAT herbicidal rating: 0.0
ORYSAT (Rice, Tebonnet) [11]; rate 0.0620 kg/ha
  ORYSAT herbicidal rating: 0.5
ORYSAT (Rice, Tebonnet) [11]; rate 0.1250 kg/ha
  ORYSAT herbicidal rating: 1.0
GLXMA (Soybean); rate 0.0620 kg/ha
  Preemergence herbicidal rating GLXMA: 0.0
GLXMA (Soybean); rate 0.1250 kg/ha
  Preemergence herbicidal rating GLXMA: 0.0
GLXMA (Soybean); rate 0.2500 kg/ha
  Preemergence herbicidal rating GLXMA: 0.0
CYPIR (Cyperus iria); rate 0.0320 kg/ha
  CYPIR herbicidal rating: 0.0
CYPIR (Cyperus iria); rate 0.1250 kg/ha
  CYPIR herbicidal rating: 0.0
[12]; rate 0.0320 kg/ha
  GLXMAW herbicidal rating: 6.0
[12]; rate 0.0620 kg/ha
  GLXMAW herbicidal rating: 6.0
[12]; rate 0.1250 kg/ha
  GLXMAW herbicidal rating: 6.0
[13]; rate 0.0320 kg/ha
  ABUTH herbicidal rating: 5.0
[13]; rate 0.0620 kg/ha
  ABUTH herbicidal rating: 7.0
[13]; rate 0.1250 kg/ha
  ABUTH herbicidal rating: 9.0
[14]; rate 0.0320 kg/ha
  ECHORC herbicidal rating: 0.0
[14]; rate 0.1250 kg/ha
  ECHORC herbicidal rating: 0.0
ORYSAT (Rice, Tebonnet) [15]
  ORYSAT herbicidal rating (transplanted rice tolerance): 0.0
[16]; rate 0.0320 kg/ha
  ECHCG herbicidal rating: 0.0
[16]; rate 0.0620 kg/ha
  ECHCG herbicidal rating: 0.0
[16]; rate 0.1250 kg/ha
  ECHCG herbicidal rating: 0.0
[17]; rate 0.0320 kg/ha
  CHEAL herbicidal rating: 9.0
[17]; rate 0.0620 kg/ha
  CHEAL herbicidal rating: 9.0
[17]; rate 0.1250 kg/ha
  CHEAL herbicidal rating: 9.0
[18]; rate 0.0320 kg/ha
  CASOB herbicidal rating: 0.0
[18]; rate 0.0620 kg/ha
  CASOB herbicidal rating: 3.0
[18]; rate 0.1250 kg/ha
  CASOB herbicidal rating: 4.0
[19]; rate 0.0320 kg/ha
  AMBEL herbicidal rating: 4.0
[19]; rate 0.0620 kg/ha
  AMBEL herbicidal rating: 4.0
[19]; rate 0.1250 kg/ha
  AMBEL herbicidal rating: 5.0
[20]; rate 0.0320 kg/ha
  SAGPY herbicidal rating: 0.0
[20]; rate 0.1250 kg/ha
  SAGPY herbicidal rating: 0.0
ZEAMX (Corn, Field) [21]; rate 0.0320 kg/ha
  ZEAMX herbicidal rating: 1.5
ZEAMX (Corn, Field) [21]; rate 0.0620 kg/ha
  ZEAMX herbicidal rating: 2.5
ZEAMX (Corn, Field) [21]; rate 0.1250 kg/ha
  ZEAMX herbicidal rating: 3.0
